Measured values: article PMC8877061, “Antifungal and Antibiofilm Activity of Cyclic Temporin L Peptide Analogues against Albicans and Non-Albicans Candida Species” (Pharmaceutics, 2022)
“Also recorded” adds a separate entry of the source. Positions of bridges follow the written chain, without caps; N, C: chain ends. Non-standard residues stand in square brackets, D forms with d. Residues, ends and D or L forms follow the SMILES beside them. Triazole bridges read from a SMILES are 1,4-linked. Lys(N3) = [N-]=[N+]=NCCCC[C@H](N)C(=O)O; Pra = C#CC[C@H](N)C(=O)O

Tests used:
[1] = Peptide aggregation by Thioflavin T fluorescence in LUVs; type: physicochemical; details: LUVs PE/PC/PI/ergosterol 0.1 mM, Tris-HCl/NaCl pH 7.4, 25 °C, titrated 5-50 μM peptide
Experimental: The aggregation in the liposomes mimicking fungal membranes (5:4:1:2, w/w/w/w) was evaluated using Thioflavin T (ThT) as a dye probe. The lipid film was prepared by dissolving lipids in chloroform to have a final lipid concentration of 0.1 mM. Then, the solvent was removed under a nitrogen gas stream, and the film was freeze-dried overnight. Lipid films were hydrated with 100 mM NaCl, 10 mM Tris-HCl and a […] ThT buffer at a pH of 7.4 and then treated as described above to obtain LUVs. The LUVs were titrated with a peptide concentration of 5, 10, 15, 20, 30 and 50 μM, and ThT fluorescence was recorded before and after the addition of the peptide using the Varian Cary Eclipse fluorescence spectrometer at 25 °C. The samples were excited at 450 nm (slit width: 10 nm), and the fluorescence emission was recorded at 482 nm (slit width: 5 nm). Aggregation was quantified according to the equation %A = (Ff − F0)/(Fmax − F0) × 100, where Ff indicates the value of fluorescence after the peptide addition, F0 is the initial fluorescence before the addition of the peptide and Fmax is the fluorescence maximum obtained immediately after the peptide addition.

[2] = tested on: G. mellonella larvae; details: in vivo
Experimental: Twenty larvae with an average weight of 180–200 mg were used in each group in all assays with 2 control groups; one group was inoculated with PBS, while the other group received no injection as a control to evaluate general viability. A volume of 10 µL of each peptide at different concentrations (12.5, 25.0, and 50.0 µM) was inoculated in each group. All larvae were incubated at 37 °C and monitored daily for survival for 4 days in 3 independent experiments.

[3] = Circular dichroism in liposomes mimicking fungal membranes; type: physicochemical; details: SUVs PE/PC/PI/ergosterol
Experimental: The circular dichroism spectra of the selected peptides (3, 7, 15 and 16) were recorded in small unilamellar vesicles (SUVs) composed of PE/PC/PI/Ergosterol (5:4:1:2, w/w/w/w, final lipid concentration = 0.01 mM) and DOPC/Chol (70:30, ratio in moles, final lipid concentration = 0.1 mM), between 190 and 260 nm on a JASCO J-710 CD spectropolarimeter at 25 °C using quartz cells with a 0.1-cm path length. The SUVs were prepared as reported in the following protocol. Once the lipid films were prepared as described above, they were hydrated with a phosphate buffer (5 mM, pH 7.4) (DOPC:Chol) or water (PE/PC/PI/Ergosterol) for 1 h and sonicated for 40 min. […] We accumulated the data three times, and all spectral data were subtracted from the background. Each spectrum converted the signal to the mean molar ellipticity, and we calculated the ratio of the ellipticities at 222 and 208 nm to discriminate between the monomeric and oligomeric states of the helices. The helix content was calculated as follows: [θ]222/(−40,000[1 − 2.5/n)], where [θ]222 is the ellipticity measurement at 222 nm and n is the number of amino acid residues.

[4] = tested on: C. albicans preformed biofilm; test: Eradication of preformed biofilm (XTT); type: cell-based; details: peptide 6.25 μM, 24-h old biofilm, 24 h treatment
Experimental: (§1) C. albicans ATCC 90028, C. auris DSM 21092, C. glabrata DSM 11226, C. tropicalis DSM11951 and C. parapsilosis DSM 4874 grown on YPD Agar (1% w/v yeast extract, 2% w/v peptone, 2% w/v glucose, 1.5% Agar) were cultured in Tryptone soya broth supplemented with 0.1% glucose for 16–18 h at 37 °C, washed twice using sterile phosphate-buffered saline (PBS) and standardized to […] as required for the experiments. RPMI1640 medium (Thermo Fisher Scientific, Waltham, MA, USA) buffered to a pH of 7.0 with 0.165 M MOPS was used for growing the biofilms of all Candida species.
(§2) Biofilm inhibition and eradication assays were performed as previously described in [37]. […] After the incubation period, non-adherent cells were detached by washing each sample three times in sterile PBS. […] The total biomass was quantified by a crystal violet assay for the inhibition. The vital biomass was quantified by XTT for test eradication by using the tetrazolium 2,3-bis (2-methoxy-4-nitro-5 sulfophenyl)-5-[(phenylamine) carbonyl]-2H-hydroxide reduction assay (XTT) (Sigma-Aldrich, St. Luis, MO, USA) according to the manufacturer’s instructions. The absorbance was measured spectrophotometrically at 492 nm. The percentages of inhibition or eradication were calculated as follows: % biofilm reduction = Abs control − Abs sample/Abs control × 100.

[5] = tested on: C. parapsilosis preformed biofilm; test: Eradication of preformed biofilm (XTT); type: cell-based; details: peptide 6.25 μM, 24-h old biofilm, 24 h treatment
Experimental: as §1, §2

[6] = tested on: C. albicans ATCC 90028 biofilms; test: Eradication of preformed biofilm, bright-field microscopy; type: cell-based; details: peptide 12.5 μM
Experimental: Biofilm inhibition and eradication assays were performed as previously described in [37]. […] After the incubation period, non-adherent cells were detached by washing each sample three times in sterile PBS. Then, the samples were fixed, and the biofilms were stained with a 0.1% solution of crystal violet. To test the effect against the established biofilm, fresh growth medium containing peptides at the same concentrations was added in the preformed 24-h old biofilms and incubated for another 24 h. The total biomass was quantified by a crystal violet assay for the inhibition. The vital biomass was quantified by XTT for test eradication by using the tetrazolium 2,3-bis (2-methoxy-4-nitro-5 sulfophenyl)-5-[(phenylamine) carbonyl]-2H-hydroxide reduction assay (XTT) (Sigma-Aldrich, St. Luis, MO, USA) according to the manufacturer’s instructions. The absorbance was measured spectrophotometrically at 492 nm. The percentages of inhibition or eradication were calculated as follows: % biofilm reduction = Abs control − Abs sample/Abs control × 100.
Optical microscopy images were acquired by using a Leica AF6000LX-DM6M-Z microscope (Leica Microsystems, Mannheim, Germany) controlled by LAS-X (Leica Application Suite; rel. 3.0.13) software and equipped with a Leica Camera DFC7000T. Images were acquired by focusing on the Petri dish surface with a 50× objective in a bright field. […]

[7] = Peptide aggregation imaged by AFM on mica; type: physicochemical
Excerpt: XE-100 Atomic Force Microscopy (AFM) (by Park Systems, Suwon, Korea) was used for the imaging of the most promising peptide (3) with and without liposome interaction. Surface imaging was obtained in non-contact mode using SSS-NCHR 10 M (by Park Systems) Si/Al-coated cantilever with a sharp tip (typical tip radius: 2 nm, <5 nm max), a resonance frequency between 200 and 400 kHz and a nominal force constant of 42 N/m. […] The AFM images were processed and analyzed by the home software (XEI by Park Systems). The images were flattened to remove the background slope and adjusted in terms of contrast and brightness. For the sample preparation for AFM, the AFM imaging was performed on a substrate of a Muscovite mica surface (of about 1 cm^2 in area) that owned a root mean square (rms) surface roughness of less than 0.5 nm on a 1000 × 1000 nm^2 area. The 3-µL aliquots of the sample solutions were casted on mica immediately after cleavage with adhesive tape to establish their cleanliness and charge activity. In fact, after the cleavage, the K^+ ions bonding the mica layers were highly mobile, resulting in a positive overcharging of the mica surface, which enabled the deposition of molecules that held a […]. After 2 min, every sample was gently washed with deionized water to remove the sample excesses and then dried at room temperature under a ventilated fume hood.

[8] = absence of liposomes, peptide 50 μM

## CC(C)C[C@H](NC(=O)[C@@H]1CCCCn2cc(nn2)C[C@H](NC(=O)[C@H](CCCCN)NC(=O)[C@H](CO)NC(=O)[C@H](Cc2ccccc2)NC(=O)[C@H](Cc2c[nH]c3ccccc23)NC(=O)[C@@H]2CCCN2C(=O)[C@@H](NC(=O)[C@@H](N)Cc2ccccc2)C(C)C)C(=O)N[C@H](CC(C)C)C(=O)NCC(=O)N[C@@H](CCCNC(=N)N)C(=O)N1)C(N)=O [compound 7] (H-FVPWFSK[Pra][dL]GR[Lys(N3)]L-NH2; triazole 8-12; N-terminus assumed)
[1]
  concentration of complete aggregation (ThT fluorescence): 30 µM

## CC[C@H](C)[C@H](NC(=O)[C@H](CCCNC(=N)N)NC(=O)[C@@H]1CCCCNC(=O)CC[C@H](NC(=O)[C@H](Cc2ccccc2)NC(=O)[C@H](Cc2c[nH]c3ccccc23)NC(=O)[C@@H]2CCCN2C(=O)[C@@H](NC(=O)[C@@H](N)Cc2ccccc2)C(C)C)C(=O)N[C@@H](CCCCN)C(=O)N[C@@H](Cc2ccccc2)C(=O)N[C@H](CC(C)C)C(=O)N1)C(=O)N[C@@H](CC(C)C)C(N)=O [compound 15] (H-FVPWFEKF[dL]KRIL-NH2; lactam 6-10; N-terminus assumed)
[2]
  toxicity in G. mellonella larvae at 50 μM: greater toxicity

## CC[C@H](C)[C@H](NC(=O)[C@H](CCCNC(=N)N)NC(=O)[C@@H]1CSSC[C@H](NC(=O)[C@H](Cc2ccccc2)NC(=O)[C@H](Cc2c[nH]c3ccccc23)NC(=O)[C@@H]2CCCN2C(=O)[C@@H](NC(=O)[C@@H](N)Cc2ccccc2)C(C)C)C(=O)N[C@@H](CCCCN)C(=O)N[C@@H](Cc2ccccc2)C(=O)N[C@H](CC(C)C)C(=O)N1)C(=O)N[C@@H](CC(C)C)C(N)=O [compound 16] (H-FVPWFCKF[dL]CRIL-NH2; disulfide 6-10; N-terminus assumed)
[3]; peptide 10 μM
  conformation by CD in fungal membrane-like SUVs, 10 μM: random coil conformation; also recorded: random coil structure
[3]; peptide 50 μM
  conformation by CD in fungal membrane-like SUVs, 50 μM: α-helical molecular aggregates

## CC[C@H](C)[C@H](NC(=O)[C@H](CCCNC(=N)N)NC(=O)[C@@H]1CCC(=O)NCCCC[C@H](NC(=O)[C@H](Cc2ccccc2)NC(=O)[C@H](Cc2c[nH]c3ccccc23)NC(=O)[C@@H]2CCCN2C(=O)[C@@H](NC(=O)[C@@H](N)Cc2ccccc2)C(C)C)C(=O)N[C@@H](CCCCN)C(=O)N[C@@H](Cc2ccccc2)C(=O)N[C@H](CC(C)C)C(=O)N1)C(=O)N[C@@H](CC(C)C)C(N)=O [compound 3] (H-FVPWFKKF[dL]ERIL-NH2; lactam 6-10; N-terminus assumed)
[4]
  eradication of preformed biofilm, C. albicans: 50%
[5]
  eradication of preformed biofilm, C. parapsilosis: 50%
[6]
  eradication effect on preformed C. albicans biofilms by optical microscopy: effective in the eradication of biofilm
[7]; [8]
  height of aggregates (clusters) on mica by AFM: ≤ 20 nm
  width of aggregates (clusters) on mica by AFM: up to 300 nm
[7]; after interaction with liposomes mimicking fungal membranes
  thickness of peptide layer on mica by AFM, presence of liposomes: 4 nm
